Key:
[1] = biological target: HORK3 protein (human ADP receptor P2TAC) (Homo sapiens, UniProt Q9H244); assay: [3H]-2MeSADP binding assay on membrane fraction of C6-15 cell expressing HORK3 protein; conditions: Scatchard analysis
Description: (§1) The C6-15 cells expressing the HORK3 protein prepared in Example 5 were taken and washed, and then suspended in 20 mmol/L Tris-HCl (pH7.4) containing 5 mmol/L EDTA and a protease inhibitor cocktail set (Complete™; manufactured by Boeringer Mannheim). The whole was homogenized by using a POLYTRON, and ultracentrifuged. The pellet was suspended in 50 mmol/L Tris-HCl (pH7.4) containing 1 mmol/L EDTA, 100 mmol/L NaCl, 0.1% BSA, and Complete™ to obtain a membrane fraction.
(§2) After [^3H]-2MeSADP (manufactured by Moravek Biochemical) was added to 20 μg of the membrane fraction as a final concentration of 0.25 to 50 nmol/L, and was incubated in 250 μL of 50 mmol/L Tris-HCl (pH7.4) containing 1 mmol/L EDTA, 100 mmol/L NaCl, 0.1% BSA, and Complete™ at room temperature for 1 hour, the whole was collected on a glass filter by using a cell harvester. A microscintillator was added to the glass filter, and then a total amount of binding to the membrane fraction was measured by using a liquid scintillation counter. Further, an amount of non-specific binding to the membrane fraction was measured by adding 2MeSADP (a final concentration=50 μmol/L) in the above assay.
A microscintillator was added to the glass filter, and then radioactivity was measured by using a liquid scintillation counter. Further, radioactivity was measured by not adding the compound and by adding 2MeSADP (a final concentration=10 μmol/L) in the above assay, as a total amount of binding and an amount of non-specific binding, respectively.

[2] = system: membrane fraction of the host cell C6-15 not expressing the HORK3 protein; assay: [3H]-2MeSADP binding to membrane fraction of host cell C6-15 not expressing HORK3 protein; design: species or system rat
Description: as §1
as §2, with “assay. […] In contrast, such a specific binding was not observed in the membrane fraction of the host cell C6-15 not expressing the HORK3 protein.” for “assay.”

Sequence of HORK3 protein (human ADP receptor P2TAC) (Q9H244 whole entry): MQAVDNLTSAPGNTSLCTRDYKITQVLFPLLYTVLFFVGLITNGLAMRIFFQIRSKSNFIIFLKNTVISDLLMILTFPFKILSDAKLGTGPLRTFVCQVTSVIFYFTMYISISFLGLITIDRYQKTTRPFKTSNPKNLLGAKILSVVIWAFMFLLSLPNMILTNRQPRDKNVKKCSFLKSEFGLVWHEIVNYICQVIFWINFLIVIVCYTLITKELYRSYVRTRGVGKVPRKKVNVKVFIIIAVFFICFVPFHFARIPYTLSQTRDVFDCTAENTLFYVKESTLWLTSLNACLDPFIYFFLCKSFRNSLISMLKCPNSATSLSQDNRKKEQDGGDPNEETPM

Kd ([1]; 0.25 to 50 nmol/L, room temperature 1 hour, read-out: dissociation constant Kd of binding to the membrane fraction): 0.27 nM
maximum binding Bmax ([1]; membrane fraction of C6-15 cell expressing HORK3): 3.7 pmol/mg
Compound: CSc1nc(N)c2ncn([C@@H]3O[C@H](COP(=O)(O)OP(=O)(O)O)[C@@H](O)[C@H]3O)c2n1 [[^3H]-2MeSADP, [^3H] 2-methylthio-ADP]
specific binding to the membrane fraction [2]: not observed

Source: patent publication US7405051B2, “Method of screening antiplatelet agents” (Astellas Pharma Inc., priority 2000, dated 2008)
